Columns and labels:
[1] = test system: Vero cells; assay: Cytotoxicity against Vero cells; type: cell-based, African monkey
[2] = test system: Cryptococcus neoformans; assay: Antimicrobial assay, antifungal; conditions: compared to control drug amphotericin B
[3] = test system: Plasmodium falciparum D6 clone (chloroquine-sensitive); assay: In vitro antimalarial assay; type: cell-based; conditions: D6, 72 h, read-out: Plasmodium falciparum D6 clone IC50
[4] = test system: Plasmodium falciparum W2 clone (chloroquine-resistant); assay: In vitro antimalarial assay; type: cell-based; conditions: W2, 72 h, read-out: Plasmodium falciparum W2 clone IC50
[5] = test system: National Cancer Institute's 60 cultured human tumor cell lines; assay: NCI 60 human tumor cell line screen; conditions: mean graph midpoint; concentration of total growth inhibition

SMILES | Cytotoxicity Vero TC50 ([1]; African monkey, 48 h) | other results
C[C@H]1[C@@H](OC/C=C\CO)O[C@@H]2O[C@@]3(C)CC[C@H]4[C@H](C)CC[C@@H]1[C@@]24OO3 [Compound 17] | > 13,430 nM | In vitro antifungal activity (in words) [2]: enhanced activity compared to the control drug, amphotericin B
C[C@H]1[C@@H](OCC[C@@H](CO[C@H]2O[C@@H]3O[C@@]4(C)CC[C@H]5[C@H](C)CC[C@@H]([C@H]2C)[C@@]35OO4)O[C@H]2O[C@@H]3O[C@@]4(C)CC[C@H]5[C@H](C)CC[C@@H]([C@H]2C)[C@@]35OO4)O[C@@H]2O[C@@]3(C)CC[C@H]4[C@H](C)CC[C@@H]1[C@@]24OO3 [Compound 18] | 5,259 nM | –
CCN(CC)CCCC(C)Nc1ccnc2cc(Cl)ccc12 (stereo not shown) [chloroquine] | – | Cytotoxicity Vero TC50 ([1]; Table 2, concentration toxic to 50% of the cells): > 14,881 nM; IC50 [3]: 0.0416 µM; IC50 [4]: 0.378 µM
C[C@H]1[C@@H](Oc2cccc(N[C@@H]3[C@H](C)O[C@@H]4O[C@@]5(C)CC[C@H]6[C@H](C)CC[C@@H]3[C@@]46OO5)c2)O[C@@H]2O[C@@]3(C)CC[C@H]4[C@H](C)CC[C@@H]1[C@@]24OO3 [Compound 7] | > 7,417 nM | In vitro antifungal activity (in words) [2]: enhanced activity compared to the control drug, amphotericin B
C=C[C@@H](CO[C@H]1O[C@@H]2O[C@@]3(C)CC[C@H]4[C@H](C)CC[C@@H]([C@H]1C)[C@@]24OO3)O[C@H]1O[C@@H]2O[C@@]3(C)CC[C@H]4[C@H](C)CC[C@@H]([C@H]1C)[C@@]24OO3 [Compound 9] | 773 nM | –
C[C@H]1[C@@H](OC[C@@H](O)[C@@H](O)CO[C@H]2O[C@@H]3O[C@@]4(C)CC[C@H]5[C@H](C)CC[C@@H]([C@H]2C)[C@@]35OO4)O[C@@H]2O[C@@]3(C)CC[C@H]4[C@H](C)CC[C@@H]1[C@@]24OO3 [Compound 11] | > 7,270 nM | –
C[C@H]1[C@@H](OCC(O)CO[C@H]2O[C@@H]3O[C@@]4(C)CC[C@H]5[C@H](C)CC[C@@H]([C@H]2C)[C@@]35OO4)O[C@@H]2O[C@@]3(C)CC[C@H]4[C@H](C)CC[C@@H]1[C@@]24OO3 (stereo partly shown) [Compound 5] | 384 nM | –
C[C@H]1[C@@H](O[C@@H](CO[C@H]2O[C@@H]3O[C@@]4(C)CC[C@H]5[C@H](C)CC[C@@H]([C@H]2C)[C@@]35OO4)[C@H](O)CO)O[C@@H]2O[C@@]3(C)CC[C@H]4[C@H](C)CC[C@@H]1[C@@]24OO3 [Compound 12] | 825 nM | In vitro antifungal activity (in words) [2]: enhanced activity compared to the control drug, amphotericin B
C[C@H]1[C@@H](OCc2cc(O)cc(O)c2)O[C@@H]2O[C@@]3(C)CC[C@H]4[C@H](C)CC[C@@H]1[C@@]24OO3 [Compound 16] | > 11,711 nM | –
C[C@@H]1CC[C@H]2[C@@H](C)C(=O)O[C@@H]3O[C@@]4(C)CC[C@@H]1[C@]32OO4 [Compound 1, Artemisinin, reference compound] | > 1,686 nM | –
C[C@H]1[C@@H](OCC[C@H](O)CO[C@H]2O[C@@H]3O[C@@]4(C)CC[C@H]5[C@H](C)CC[C@@H]([C@H]2C)[C@@]35OO4)O[C@@H]2O[C@@]3(C)CC[C@H]4[C@H](C)CC[C@@H]1[C@@]24OO3 [Compound 10] | > 7,452 nM | –
C[C@H]1[C@@H](OCc2cc(O)cc(O[C@H]3O[C@@H]4O[C@@]5(C)CC[C@H]6[C@H](C)CC[C@@H]([C@H]3C)[C@@]46OO5)c2)O[C@@H]2O[C@@]3(C)CC[C@H]4[C@H](C)CC[C@@H]1[C@@]24OO3 [Compound 6] | > 7,075 nM | MG_MID TGI [5]: 2.82 µM
C[C@H]1[C@@H](OC[C@@H]2O[C@@H]2CO[C@H]2O[C@@H]3O[C@@]4(C)CC[C@H]5[C@H](C)CC[C@@H]([C@H]2C)[C@@]35OO4)O[C@@H]2O[C@@]3(C)CC[C@H]4[C@H](C)CC[C@@H]1[C@@]24OO3 [Compound 13] | > 7,475 nM | –
C[C@H]1[C@@H](OCC(=O)CO)O[C@@H]2O[C@@]3(C)CC[C@H]4[C@H](C)CC[C@@H]1[C@@]24OO3 [Compound 15] | > 13,355 nM | –
CC1=CO[C@@H]2O[C@]3(C)CC[C@H]4[C@H](C)CC[C@@H]1[C@@]24OO3 [Compound 3, Anhydrodihydroartemisinin, reference compound] | > 1,787 nM | –
C[C@H]1[C@@H](OC/C=C\CO[C@H]2O[C@@H]3O[C@@]4(C)CC[C@H]5[C@H](C)CC[C@@H]([C@H]2C)[C@@]35OO4)O[C@@H]2O[C@@]3(C)CC[C@H]4[C@H](C)CC[C@@H]1[C@@]24OO3 [Compound 8] | 709 nM | –
C[C@H]1[C@@H](O)O[C@@H]2O[C@@]3(C)CC[C@H]4[C@H](C)CC[C@@H]1[C@@]24OO3 [Compound 2, Dihydroartemisinin, reference compound] | 1,407 nM | –
C[C@H]1[C@@H](OCC(=O)CO[C@H]2O[C@@H]3O[C@@]4(C)CC[C@H]5[C@H](C)CC[C@@H]([C@H]2C)[C@@]35OO4)O[C@@H]2O[C@@]3(C)CC[C@H]4[C@H](C)CC[C@@H]1[C@@]24OO3 [Compound 4] | 257 nM | –
C[C@H]1[C@@H](OCC(CO[C@H]2O[C@@H]3O[C@@]4(C)CC[C@H]5[C@H](C)CC[C@@H]([C@H]2C)[C@@]35OO4)OS(C)(=O)=O)O[C@@H]2O[C@@]3(C)CC[C@H]4[C@H](C)CC[C@@H]1[C@@]24OO3 (stereo partly shown) [Compound 14] | 6,403 nM | –

— paper PMC2824924 (Bioorganic & medicinal chemistry, 2009)
